According to patent US8168667B2 (Galapagos NV, priority 2006, dated 2012):
Like-named read-outs stand apart in the source and are kept apart here.

Biological target: T1, human androgen receptor (hAR) (Homo sapiens, UniProt P10275)
T1 sequence (P10275 1-920): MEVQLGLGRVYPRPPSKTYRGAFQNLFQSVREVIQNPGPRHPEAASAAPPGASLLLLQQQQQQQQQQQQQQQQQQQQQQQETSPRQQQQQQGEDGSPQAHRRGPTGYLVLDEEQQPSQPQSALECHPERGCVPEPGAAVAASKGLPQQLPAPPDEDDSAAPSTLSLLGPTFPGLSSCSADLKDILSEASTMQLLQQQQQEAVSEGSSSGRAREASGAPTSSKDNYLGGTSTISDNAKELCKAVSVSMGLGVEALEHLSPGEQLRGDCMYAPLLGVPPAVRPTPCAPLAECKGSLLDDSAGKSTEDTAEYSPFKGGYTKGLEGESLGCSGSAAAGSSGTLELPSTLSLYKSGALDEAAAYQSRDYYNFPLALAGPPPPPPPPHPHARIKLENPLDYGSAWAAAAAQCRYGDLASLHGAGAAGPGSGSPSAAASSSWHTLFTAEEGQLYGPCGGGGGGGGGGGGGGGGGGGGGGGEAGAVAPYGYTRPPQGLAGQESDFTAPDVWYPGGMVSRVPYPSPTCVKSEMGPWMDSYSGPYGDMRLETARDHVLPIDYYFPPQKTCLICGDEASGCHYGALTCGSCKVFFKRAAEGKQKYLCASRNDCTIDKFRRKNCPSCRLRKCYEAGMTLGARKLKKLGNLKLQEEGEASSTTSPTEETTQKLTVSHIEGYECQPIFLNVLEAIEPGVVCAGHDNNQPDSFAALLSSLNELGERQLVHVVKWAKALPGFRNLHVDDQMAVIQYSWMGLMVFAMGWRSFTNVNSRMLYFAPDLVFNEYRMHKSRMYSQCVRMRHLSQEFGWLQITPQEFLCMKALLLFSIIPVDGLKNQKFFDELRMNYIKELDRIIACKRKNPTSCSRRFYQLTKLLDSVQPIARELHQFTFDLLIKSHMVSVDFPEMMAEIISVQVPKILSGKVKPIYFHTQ
Assay: Functional response test: hAR transactivation (luciferase reporter) in HALP2 cells
Assay type: cell-based
Settings: for EC50: agonism, HALP2 cells (HeLa, hAR + ARE-luciferase), 20 hours at 37° C.
Source text: This test constitutes a method of identifying pure or partial agonists which mimic the effects of natural hormones, such as DHT (dihydrotestosterone) in the present case or, on the other hand, antagonists which inhibit them.
For this transactivation test, plasmids encoding a reporter gene and the human androgen receptor (hAR) are introduced together by transfection into the HeLa cell line. The reporter plasmid contains luciferase cDNA under the control of the AREs contained in the promoter sequences of the probasin gene (3xpbAREminicoll-luciferase/pGL3-puro). The expression of the reporter gene constitutes an indication of the transcriptional activity of hAR. It also encodes a protein allowing the cells expressing it to resist a treatment with puromycin. The plasmid encoding hAR contains the cDNA of hAR under the control of the Cytomegalovirus (CMV) promoter. It also encodes a protein allowing the cells expressing it to resist a treatment with neomycin. The treatment of cells with increasing amounts of potentially agonistic compounds will increase the expression of the reporter gene. To detect antagonists, on the other hand, increasing doses of test compounds are tested in the presence of […] of DHT. The expression of the reporter gene, which is constant for each dose of DHT, decreases when the concentration of the test compounds increases.
For this test, HeLa cells were obtained from the American Type Culture Collection (Rockville, Md.) and cultivated in DMEM medium containing 4.5 g/l of glucose, supplemented with Glutamax and with nonessential amino-acids and with 10% of foetal calf serum (SVF; Dominique Dutscher).
On the day before transfection, a million cells were seeded in DMEM medium without phenol red, supplemented with Glutamax and with desteroided SVF (5%) in Petri dishes. The cells were transfected with 4 μg of the puromycin resistance plasmids pcDNA3-hAR and 3xpbAREminicoll-luciferase/pGL3 using the reagent “Lipofectamine plus” (Invitrogen), following the supplier's recommendations. The day after transfection, the cells were seeded to different cell densities (10,000 to 100,000 cellules per Petri dish). Two days after transfection, the transfected cells were selected in DMEM medium without phenol red, supplemented with Glutamax and with desteroided SVF (5%) containing 400 μg/mL of G418 (Invitrogen) and 150 ng/mL of puromycin (Sigma). The culture medium was renewed weekly until resistant clones appeared. The resistant clones were removed and amplified before being tested for their functional response. […]
The functional response test was conducted on 96-well plates. The HALP2 cells were seeded (30,000 cells per well) 24 hours before the phase of stimulation in DMEM medium containing 4.5 g/L of glucose, supplemented with Glutamax and nonessential amino-acids, and with desteroided SVF (5%).
On the day of stimulation, the seeding medium was replaced by DMEM medium without phenol red, supplemented with Glutamax and with desteroided SVF (5%). […] The cells were placed in contact with the compounds for 20 hours at 37° C.

[1] = antagonism, concentration which increases the EC50 of the DHT by a factor of 2, Schild regression, HALP2 cells

Compound | KSchild (nM) potency [nM] | EC50 [nM] | KSchild (nM) potency [1] [nM]
COc1ccc(C2(C)C(=O)N(c3ccc(C#N)c(C(F)(F)F)c3)C(=O)N2C)c(C)c1 (stereo not drawn) [Example 163, 4-[3,4-dimethyl-2,5-dioxo-4-(4-methoxy-2-methylphenyl)imidazolidin-1-yl]-2-trifluoromethylbenzonitrile] | 80 |  | 
CN(C)CCN1C(=O)N(c2ccc(Cl)c(C(F)(F)F)c2)C(=O)C1c1ccc(O)cc1 (stereo not drawn) [Example 117] |  | 77.5 | 77.46
CN1C(=O)N(c2ccc(Cl)c(Cl)c2)C(=O)C1c1cccc(O)c1 (stereo not drawn) [Example 152, 1-(3,4-dichlorophenyl)-4-(3-hydroxyphenyl)-3-methylimidazolidine-2,5-dione] |  | 4 | 4
CN1C(=O)N(c2ccc(F)c(C(F)(F)F)c2)C(=O)C1c1ccc(O)cc1 (stereo not drawn) [Example 48] |  | 60 | 48.99
CN1C(=O)N(c2ccc(C#N)c3c2CCC3)C(=O)C1(C)c1ccc(O)cc1 (stereo not drawn) [Example 33, 2,3-dihydro-7-[3,4-dimethyl-2,5-dioxo-4-(4-hydroxyphenyl)imidazolidin-1-yl]-4(1H)-indenenitrile] | 0.78 |  | 
C=CCN1C(=O)N(c2ccc(C#N)c(C(F)(F)F)c2)C(=O)C1c1ccc(O)cc1 (stereo not drawn) [Example 12, 4-[2,5-dioxo-4-(4-hydroxyphenyl)-3-(2-propenyl)imidazolidin-1-yl]-2-trifluoromethyl-benzonitrile] | 24.49 |  | 
O=C1C(c2ccc(O)cc2)N(CCCCO)C(=O)N1c1ccc(F)c(C(F)(F)F)c1 (stereo not drawn) [Example 135] | 600 |  | 
O=C1C(c2ccc(O)cc2)N(Cc2ccc3c(c2)OCO3)C(=O)N1c1ccc([N+](=O)[O-])c(C(F)(F)F)c1 (stereo not drawn) [Example 98] | 94.87 |  | 
CCc1cc(C#N)ccc1N1C(=O)N(C)C(C)(c2ccc(O)cc2)C1=O (stereo not drawn) [Example 37, 4-[3,4-dimethyl-2,5-dioxo-4-(4-hydroxyphenyl)imidazolidin-1-yl]-3-ethylbenzonitrile] | 24.49 |  | 
O=C1C(c2ccc(O)cc2)N(CCO)C(=O)N1c1ccc(Cl)c(Cl)c1 (stereo not drawn) [Example 139] |  | 44.7 | 28.28
CCCN1C(=O)N(c2ccc(Cl)c(Cl)c2)C(=O)C1c1ccc(O)cc1 (stereo not drawn) [Example 55] |  | 54.8 | 34.64
CN1C(=O)N(c2ccc(C#N)c(C(F)(F)F)c2)C(=O)C1(C)c1ccc(O)c(F)c1 (stereo not drawn) [Example 172, 4-[4-(3-fluoro-4-hydroxyphenyl)-3,4-dimethyl-2,5-dioxoimidazolidin-1-yl]-2-trifluoromethylbenzonitrile] | 8 |  | 
O=C1C(c2ccc(O)cc2)N(Cc2ccsc2)C(=S)N1c1cccc(Cl)c1Cl (stereo not drawn) [Example 17, 1-(2,3-dichlorophenyl)-4-(4-hydroxyphenyl)-3-[(thiophen-3-yl)methyl]-2-thioxo-imidazolidin-5-one] |  | 2000 | 2000
CC1(c2ccc(O)cc2)C(=O)N(c2ccc(C#N)c(C(F)(F)F)c2)C(=O)N1C1CCCC1 (stereo not drawn) [Example 24.2, 4-[3-cyclopentyl-2,5-dioxo-4-(4-hydroxyphenyl)-4-methylimidazolidin-1-yl]-2-trifluoromethylbenzonitrile] |  |  | 20
CN(C)CCN1C(=O)N(c2ccc(C#N)c(C(F)(F)F)c2)C(=O)C1c1ccc(O)cc1 (stereo not drawn) [Example 113] | 109.54 |  | 
Cc1cc(C#N)ccc1N1C(=O)N(C)C(C)(c2ccc(O)cc2)C1=O (stereo not drawn) [Example 36, 4-[3,4-dimethyl-2,5-dioxo-4-(4-hydroxyphenyl)imidazolidin-1-yl]-3-methylbenzonitrile] | 69.28 |  | 

Compound | KSchild (nM) potency [nM] | EC50 [nM] | KSchild (nM) potency [1] [nM]
N#CCN1C(=O)N(c2ccc(Cl)c(Cl)c2)C(=O)C1c1ccc(O)cc1 (stereo not drawn) [Example 91] |  | 94.9 | 94.87
N#CCCN1C(=O)N(c2ccc(Cl)c(C(F)(F)F)c2)C(=O)C1c1ccc(O)cc1 (stereo not drawn) [Example 125] | 30 |  | 
O=C1C(c2ccc(O)cc2)N(Cc2ccc3c(c2)OCO3)C(=O)N1c1ccc(Cl)c(C(F)(F)F)c1 (stereo not drawn) [Example 101] |  | 245 | 244.95
O=C1C(c2ccc(O)cc2)N(Cc2ccsc2)C(=O)N1c1ccc(Cl)c(Cl)c1 (stereo not drawn) [Example 10, 1-(3,4-dichlorophenyl)-4-(4-hydroxyphenyl)-3-[(thiophen-3-yl)methyl]imidazolidine-2,5-dione] |  | 16.4 | 13.69
CC1(c2ccc(O)cc2)C(=O)N(c2ccc(C#N)c(C(F)(F)F)c2)C(=O)N1C1CC1 (stereo not drawn) [Example 24.1, 4-[3-cyclopropyl-2,5-dioxo-4-(4-hydroxyphenyl)-4-methylimidazolidin-1-yl]-2-trifluoromethylbenzonitrile] | 10 |  | 
C#CCN1C(=S)N(c2ccc(Cl)c(Cl)c2)C(=O)C1(C)c1ccc(O)cc1 (stereo not drawn) [Example 41, 1-(3,4-dichlorophenyl)-4-(4-hydroxyphenyl)-4-methyl-3-(2-propynyl)-2-thioxoimidazolidin-5-one] |  | 25.3 | 15.49
CCOCCCN1C(=O)N(c2ccc(F)c(Cl)c2)C(=O)C1c1ccc(O)cc1 (stereo not drawn) [Example 88] |  | 34.6 | 34.64
N#CCCN1C(=O)N(c2ccc(C#N)c(C(F)(F)F)c2)C(=O)C1c1ccc(O)cc1 (stereo not drawn) [Example 121] | 17.32 |  | 
CCOC(=O)CCN1C(=O)N(c2ccc(C#N)c(C(F)(F)F)c2)C(=O)C1(C)c1ccc(O)cc1 (stereo not drawn) [Example 236, 4-[2,5-dioxo-3-[2-(ethoxycarbonyl)ethyl]-4-(4-hydroxyphenyl)-4-methylimidazolidin-1-yl]-2-trifluoromethylbenzonitrile] | 15 |  | 
C#CCN1C(=O)N(c2ccc([N+](=O)[O-])c(C(F)(F)F)c2)C(=O)C1c1ccc(O)cc1 (stereo not drawn) [Example 71] | 300 |  | 
C#CCN1C(=O)N(c2cccc(C(F)(F)F)c2)C(=O)C1c1ccc(O)cc1 (stereo not drawn) [Example 72] |  | 42.4 | 42.43
C=CCN1C(=O)N(c2ccc(Cl)c(C(F)(F)F)c2)C(=O)C1c1ccc(O)cc1 (stereo not drawn) [Example 61] |  | 34.6 | 34.64
CC(=O)OCC#CCN1C(=O)N(c2ccc(Cl)c(Cl)c2)C(=O)C1(C)c1ccc(O)cc1 (stereo not drawn) [Example 223, 4-[1-(3,4-dichlorophenyl)-2,5-dioxo-4-methyl-4-(4-hydroxyphenyl)imidazolidin-3-yl]-2-butynyl acetate] |  | 12.3 | 12.25
Cc1cc([N+](=O)[O-])ccc1N1C(=O)N(C)C(C)(c2ccc(O)cc2)C1=O (stereo not drawn) [Example 26, 3,4-dimethyl-4-(4-hydroxyphenyl)-1-(2-methyl-4-nitro-phenyl)imidazolidine-2,5-dione] |  |  | 20
N#CCCN1C(=O)N(c2ccc([N+](=O)[O-])cc2)C(=O)C1c1ccc(O)cc1 (stereo not drawn) [Example 129] | 34.64 |  | 
